From ChEMBL document CHEMBL1201862, “PubChem BioAssay data set” (2004) come the findings set out here.

Experiment in all cases: NCI-60 cell line screen, 48 h
Assay [1] has as its system NCI/ADR-RES.
For assay [2], the system named is OVCAR-8.
The subject of assay [3] is CAKI-1.
Assay [4] relates to DU-145.
The test system of assay [5] is A549.
Assay [6] relates to SF-268.
Assay [7] relates to SK-OV-3.
Assay [8] deals with IGROV-1.
Assay [9] relates to UACC-257.
The subject of assay [10] is KM12.
Assay [11] relates to MDA-N.
Assay [12] has as its system MCF7.
For assay [13], the system named is U-251.
Assay [14] relates to LOX IMVI.
For assay [15], the system named is HOP-92.
In assay [16] the test system is NCI-H460.
The test system of assay [17] is COLO 205.
Assay [18] has as its system SF-539.
Assay [19] has as its system NCI-H226.
The subject of assay [20] is Hs-578T.

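Five concentrations, 48 hours, 96-well plates. The concentration for 50% growth inhibition is given as GI50.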 Activity calls are given as the source filed them. Rule as the data show it: active = GI50 up to about 1.1 µM and inactive = higher.

As for `Cc1n[nH]c(=O)n1Nc1ccccc1`, the GI50 in [1], in assay [2], in assay [3], in assay [4], in assay [5] and in assay [6] was > 100 µM (inactive) in each case. Moreover, the GI50 in assay [7], in [8], in assay [9], in [10], in assay [11] and in assay [12] was > 100 µM (inactive) throughout. The GI50 in [13], in [14], in assay [15], in assay [16], in assay [17] and in assay [18] was > 100 µM (inactive) each time. Besides, the GI50 in assay [19] and in assay [20] was > 100 µM (inactive) each time.

Turning to `CC(=O)c1c2c(cc3c1CC1(C3)Cc3ccc4c(c3C1=O)CCC4)CCC2` (stereo not given), the GI50 is 2.07 µM (inactive) in assay [1]; 75.3 µM (inactive) in [2]; 14.9 µM (inactive) in assay [3]; 99.3 µM (inactive) in assay [4]; 21.5 µM (inactive) in assay [5]; > 100 µM (inactive) in assay [6]. Further, the GI50 in assay [7] is > 100 µM (inactive); in assay [8], 87.3 µM (inactive); in assay [9], 2.75 µM (inactive); in assay [10], 17.2 µM (inactive); in [11], 13.8 µM (inactive); in [12] it was 16.7 µM (inactive). Moreover, the GI50 is 56.9 µM (inactive) in assay [13]; 14.8 µM (inactive) in [14]; 8.85 µM (inactive) in [15]; 38.6 µM (inactive) in assay [16]; 11 µM (inactive) in [17]; > 100 µM (inactive) in assay [18]. In addition, the GI50 was > 100 µM (inactive) in assay [19] and 13.5 µM (inactive) in [20].

In the case of `Nc1nc(N)c(CCCCc2ccc([N+](=O)[O-])cc2)c(N)n1`, the GI50 in assay [1] is > 100 µM (inactive); in assay [2], 22.3 µM (inactive); in assay [3] it was > 96.6 µM (inactive); in [4], 76 µM (inactive); in assay [5] it was 7.29 µM (inactive); in [6], > 50.4 µM (inactive). The GI50 in assay [7] was > 100 µM (inactive); in [8], 23.6 µM (inactive); in [9] it was > 96.2 µM (inactive); in [10] it was 36.3 µM (inactive); in assay [11], > 100 µM (inactive); in assay [12] it was > 100 µM (inactive). For the same compound, the GI50 in [13] is 10.6 µM (inactive); in assay [14] it was 6.62 µM (inactive); in assay [15] it was 99.5 µM (inactive); in assay [16] it was 5.68 µM (inactive); in assay [17], > 94 µM (inactive); in [18], > 85.3 µM (inactive). Also, the GI50 in assay [19] and in assay [20] was > 100 µM (inactive) throughout.

`CC12CC3OC(=O)C1COC14OC5(C2C1=O)C(O)(CCC1C4CC(O)C2(O)CC=CC(=O)C12C)C(=O)OC35C` (stereo not given): the GI50 in [1], in assay [2], in assay [3], in assay [4], in assay [5] and in [6] was > 100 µM (inactive) in each case. The GI50 in assay [7] was > 100 µM (inactive); in assay [8], > 100 µM (inactive); in [9] it was > 100 µM (inactive); in assay [10], > 100 µM (inactive); in [11], 83.4 µM (inactive); in assay [12] it was > 100 µM (inactive). Moreover, the GI50 in [13], in assay [14], in assay [15], in [16], in assay [17] and in assay [18] was > 100 µM (inactive) in each case. Further, the GI50 in assay [19] and in assay [20] was > 100 µM (inactive) in each case.

As to `O=C(NC(Cl)(C(F)(F)F)C(F)(F)F)c1ccc(F)cc1`, the GI50 in [1], in assay [2], in assay [3], in assay [4], in assay [5] and in assay [6] was > 100 µM (inactive) in each case. Besides, the GI50 in assay [7], in assay [8], in assay [9], in [10], in assay [11] and in [12] was > 100 µM (inactive) throughout. Besides, the GI50 in assay [13], in [14], in [15], in [16], in [17] and in assay [18] was > 100 µM (inactive) in each case. The GI50 in [19] and in assay [20] was > 100 µM (inactive) throughout.

Consider `CCOC(=O)/C=C(/C(=O)OCC)n1cc(C)c(=O)n(/C(=C/C(=O)OCC)C(=O)OCC)c1=O`, for which the GI50 was 8.36 µM (inactive) in assay [1]; 5.35 µM (inactive) in [2]; 0.887 µM (active) in [3]; 13.7 µM (inactive) in assay [4]; 15.9 µM (inactive) in [5]; 8.45 µM (inactive) in [6]. Besides, the GI50 in assay [7] was 17.5 µM (inactive); in assay [8], 4.75 µM (inactive); in assay [9] it was 4.9 µM (inactive); in assay [10] it was 13.9 µM (inactive); in [11], 3.78 µM (inactive); in assay [12], 1.91 µM (inactive). The GI50 in assay [13] was 6.93 µM (inactive); in assay [14], 1.74 µM (inactive); in assay [15] it was 1.52 µM (inactive); in [16] it was 16.1 µM (inactive); in assay [17] it was 1.32 µM (inactive); in assay [18] it was 8.85 µM (inactive). Also, the GI50 is 6.01 µM (inactive) in assay [19] and 6.4 µM (inactive) in assay [20].

For `CC[C@@]1(O)C(=O)OCc2c1cc1n(c2=O)Cc2c-1nc1ccccc1c2/C=N/NC(=O)C[N+](C)(C)C`, the GI50 in [1] was 1.65 µM (inactive); in assay [2] it was 1.98 µM (inactive); in [3], 0.578 µM (active); in assay [4], 0.458 µM (active); in assay [5] it was 1.22 µM (inactive); in assay [6], 0.45 µM (active). The GI50 was 2.1 µM (inactive) in assay [7]; 38.8 µM (inactive) in [8]; 12.7 µM (inactive) in assay [9]; > 53.8 µM (inactive) in [10]; 9.62 µM (inactive) in assay [11]; 0.192 µM (active) in assay [12]. The GI50 in [13] was 1.11 µM (active); in assay [14], 0.824 µM (active); in [15], 3.68 µM (inactive); in assay [16] it was 0.15 µM (active); in assay [17], 62.4 µM (inactive); in assay [18], 0.386 µM (active). The figures for the GI50 in [19] and in [20] were 0.802 µM (active) and > 100 µM (inactive), respectively.
